Drawing on patent publication US20260070945A1, “MACROCYCLIC IMMUNOMODULATORS” (Bristol-Myers Squibb Company, priority 2022, published 2026), this text covers IC50 for twelve compounds.

Each structure is given as a SMILES string. Where a SMILES comes first, the peptide text is derived from it. Bridges are numbered along the chain shown (N, C = ends). [ ]: non-standard residue; d: D form. The star is where a group is joined. ξ: configuration not given here. Phe(4-COOH) = N[C@@H](Cc1ccc(C(=O)O)cc1)C(=O)O; Bip = N[C@@H](Cc1ccc(-c2ccccc2)cc1)C(=O)O; Phe(3-Me) = Cc1cccc(C[C@H](N)C(=O)O)c1; Val(3-OH) = CC(C)(O)[C@H](N)C(=O)O; 4Pal = N[C@@H](Cc1ccncc1)C(=O)O; 3Thi = N[C@@H](Cc1ccsc1)C(=O)O; Cha = N[C@@H](CC1CCCCC1)C(=O)O; Ile(3ξ) = CCC(C)[C@H](N)C(=O)O; Thr(3ξ) = CC(O)[C@H](N)C(=O)O; Carboxymethyl = O=C(O)C*; NMeA = CN[C@@H](C)C(=O)O; Orn = NCCC[C@H](N)C(=O)O; Aun = NCCCCCCCCCCC(=O)O; Dab = NCC[C@H](N)C(=O)O; AEEA = NCCOCCOCC(=O)O

The target in this assay is T1, PD-1/PD-L1 interaction (PE-labeled human PD-L1-Ig binding to Jurkat cell line over-expressing human PD-1) (Homo sapiens, UniProt Q15116).
T1 construct: expressed in transfected cells; host or cells: Jurkat
T1 sequence (Q15116 25-288): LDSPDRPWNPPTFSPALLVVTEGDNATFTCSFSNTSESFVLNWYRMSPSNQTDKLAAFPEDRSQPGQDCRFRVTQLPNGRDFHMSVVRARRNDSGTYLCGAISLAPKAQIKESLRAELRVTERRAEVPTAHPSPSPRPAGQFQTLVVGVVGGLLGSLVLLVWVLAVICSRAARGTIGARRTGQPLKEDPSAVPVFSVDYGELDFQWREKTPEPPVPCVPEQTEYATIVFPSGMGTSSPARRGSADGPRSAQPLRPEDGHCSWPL
As to the kind of experiment: Jurkat-PD-1 Cell Binding High-Content Screening Assay (CBA). The conditions noted are these: PE-labeled PD-L1-Ig 20 nM final, Jurkat-hPD-1 cells; read-out: Jurkat HPD1 PDL1 IC50. The method, boiled down:
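Jurkat cells overexpressing human PD-1 (8×10^3/well, DMEM + 10% FCS) preincubated with compound 2 h at 37 °C, then PE-labelled human PD-L1-Ig (20 nM final) for 1 h. Cells fixed in paraformaldehyde with Hoechst 33342; bound PD-L1 quantified by high-content imaging.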
As a reminder, the IC50 is the concentration needed to halve the response being measured. On to `CC(=O)NCCCC[C@@H]1NC(=O)[C@H](C(C)C)NC(=O)[C@H](CC2CCCCC2)NC(=O)[C@H](CCN)NC(=O)[C@@H](CC(C)C)NC(=O)[C@H](C)N(C)C(=O)[C@H](CCC(N)=O)NC(=O)[C@H](Cc2ccc(-c3ccccc3)cc2)NC(=O)[C@H](C(C)C)NC(=O)[C@H](Cc2c[nH]c3ccccc23)NC(=O)[C@H](CC(=O)O)NC(=O)[C@H](Cc2ccc(OCC(=O)O)cc2)NC(=O)[C@H](Cc2ccncc2)NC(=O)CSC[C@@H](C(=O)N[C@@H](CCN)C(=O)NCCOCCOCC(=O)NCCCCCCCCCCC(=O)O)NC1=O` [Example 2491] ({CH2CO}-[4Pal]Y(Carboxymethyl)DWV[Bip]Q[NMeA][dL][Dab][Cha]VK(Ac)C[Dab][AEEA][Aun]-OH; thioether N-14), for which the IC50 stood at 19.1 nM.

Take `CC(C)C[C@H]1NC(=O)[C@H](C)N(C)C(=O)[C@H](CCC(N)=O)NC(=O)[C@H](Cc2ccc(-c3ccccc3)cc2)NC(=O)[C@H](C(C)C)NC(=O)[C@H](Cc2c[nH]c3ccccc23)NC(=O)[C@H](CC(=O)O)NC(=O)[C@H](Cc2ccc(OCC(=O)O)cc2)NC(=O)[C@H](Cc2ccncc2)NC(=O)CSC[C@@H](C(=O)N[C@@H](CCN)C(=O)NCCOCCOCC(=O)NCCCCCCCCCCC(=O)O)NC(=O)[C@H](CCC(=O)O)NC(=O)[C@H](C(C)C)NC(=O)[C@H](CC2CCCCC2)NC(=O)[C@H](CCN)NC1=O` [Example 2492] ({CH2CO}-[4Pal]Y(Carboxymethyl)DWV[Bip]Q[NMeA][dL][Dab][Cha]VEC[Dab][AEEA][Aun]-OH; thioether N-14): the IC50 worked out at 31.1 nM.

For the compound `CC(=O)NCCCC[C@@H]1NC(=O)[C@H](C(C)C)NC(=O)[C@H](CC2CCCCC2)NC(=O)[C@H](CCN)NC(=O)[C@@H](CC(C)C)NC(=O)[C@H](C)N(C)C(=O)[C@H](CCC(N)=O)NC(=O)[C@H](Cc2ccc(-c3ccccc3)cc2)NC(=O)[C@H](Cc2ccc(OCC(=O)O)cc2)NC(=O)[C@H](Cc2cccc(C)c2)NC(=O)[C@H](CC(=O)O)NC(=O)[C@H](Cc2ccc(OCC(=O)O)cc2)NC(=O)[C@H](Cc2ccncc2)NC(=O)CSC[C@@H](C(=O)N[C@@H](CCN)C(=O)NCCOCCOCC(=O)NCCCCCCCCCCC(=O)O)NC1=O` [Example 2493] ({CH2CO}-[4Pal]Y(Carboxymethyl)D[Phe(3-Me)]Y(Carboxymethyl)[Bip]Q[NMeA][dL][Dab][Cha]VK(Ac)C[Dab][AEEA][Aun]-OH; thioether N-14), the IC50 is 4.8 nM.

Turning to `CC(C)C[C@H]1NC(=O)[C@H](C)N(C)C(=O)[C@H](CCC(N)=O)NC(=O)[C@H](Cc2ccc(-c3ccccc3)cc2)NC(=O)[C@H](C(C)C)NC(=O)[C@H](Cc2c[nH]c3ccccc23)NC(=O)[C@H](CC(=O)O)NC(=O)[C@H](Cc2ccc(OCC(=O)O)cc2)NC(=O)[C@H](Cc2ccncc2)NC(=O)CSC[C@@H](C(=O)N[C@@H](CCN)C(=O)NCCOCCOCC(=O)NCCCCCCCCCCC(=O)O)NC(=O)[C@H](CCC(=O)O)NC(=O)[C@H](C(C)(C)O)NC(=O)[C@H](CC2CCCCC2)NC(=O)[C@H](CCN)NC1=O` [Example 2494] ({CH2CO}-[4Pal]Y(Carboxymethyl)DWV[Bip]Q[NMeA][dL][Dab][Cha][Val(3-OH)]EC[Dab][AEEA][Aun]-OH; thioether N-14), the IC50 came out at 9.2 nM.

For the compound `Cc1cccc(C[C@@H]2NC(=O)[C@H](CC(=O)O)NC(=O)[C@H](Cc3ccc(C(=O)O)cc3)NC(=O)[C@H](Cc3ccncc3)NC(=O)CSC[C@@H](C(=O)N[C@@H](CCN)C(=O)NCCOCCOCC(=O)NCCOCCOCC(=O)NCCCCCCCCCCC(=O)O)NC(=O)[C@H](CCC(=O)O)NC(=O)[C@H](C(C)(C)O)NC(=O)[C@H](CC3CCCCC3)NC(=O)[C@H](CCN)NC(=O)[C@@H](CC(C)C)NC(=O)[C@H](C)N(C)C(=O)[C@H](Cc3ccc(C(=O)O)cc3)NC(=O)[C@H](Cc3ccc(-c4ccccc4)cc3)NC(=O)[C@H](Cc3ccc(C(=O)O)cc3)NC2=O)c1` [Example 2495] ({CH2CO}-[4Pal][Phe(4-COOH)]D[Phe(3-Me)][Phe(4-COOH)][Bip][Phe(4-COOH)][NMeA][dL][Dab][Cha][Val(3-OH)]EC[Dab][AEEA][AEEA][Aun]-OH; thioether N-14), the IC50 was found to be 108 nM.

Regarding `Cc1cccc(C[C@@H]2NC(=O)[C@H](CC(=O)O)NC(=O)[C@H](Cc3ccc(OCC(=O)O)cc3)NC(=O)[C@H](Cc3ccncc3)NC(=O)CSC[C@@H](C(=O)N[C@@H](CO)C(=O)NCCOCCOCC(=O)NCCCCCCCCCCC(=O)O)NC(=O)[C@H](CCC(=O)O)NC(=O)[C@H](C(C)(C)O)NC(=O)[C@H](CC3CCCCC3)NC(=O)[C@H](CCN)NC(=O)[C@@H](CC(C)C)NC(=O)[C@H](C)N(C)C(=O)[C@H](Cc3ccc(C(=O)O)cc3)NC(=O)[C@H](Cc3ccc(-c4ccccc4)cc3)NC(=O)[C@H](Cc3ccc(C(=O)O)cc3)NC2=O)c1` [Example 2496] ({CH2CO}-[4Pal]Y(Carboxymethyl)D[Phe(3-Me)][Phe(4-COOH)][Bip][Phe(4-COOH)][NMeA][dL][Dab][Cha][Val(3-OH)]ECS[AEEA][Aun]-OH; thioether N-14), the concentration for half-maximal inhibition (IC50) came to 67.1 nM.

As for `Cc1cccc(C[C@@H]2NC(=O)[C@H](CC(=O)O)NC(=O)[C@H](Cc3ccc(OCC(=O)O)cc3)NC(=O)[C@H](Cc3ccncc3)NC(=O)CSC[C@@H](C(=O)N[C@@H](CCCN)C(=O)NCCOCCOCC(=O)NCCCCCCCCCCC(=O)O)NC(=O)[C@H](CCC(=O)O)NC(=O)[C@H](C(C)(C)O)NC(=O)[C@H](CC3CCCCC3)NC(=O)[C@H](CCN)NC(=O)[C@@H](CC(C)C)NC(=O)[C@H](C)N(C)C(=O)[C@H](Cc3ccc(C(=O)O)cc3)NC(=O)[C@H](Cc3ccc(-c4ccccc4)cc3)NC(=O)[C@H](Cc3ccc(C(=O)O)cc3)NC2=O)c1` [Example 2497] ({CH2CO}-[4Pal]Y(Carboxymethyl)D[Phe(3-Me)][Phe(4-COOH)][Bip][Phe(4-COOH)][NMeA][dL][Dab][Cha][Val(3-OH)]EC[Orn][AEEA][Aun]-OH; thioether N-14), the half-inhibitory concentration (IC50) was determined as 32.5 nM.

`Cc1cccc(C[C@@H]2NC(=O)[C@H](CC(=O)O)NC(=O)[C@H](Cc3ccc(C(=O)O)cc3)NC(=O)[C@H](Cc3ccncc3)NC(=O)CSC[C@@H](C(=O)N[C@@H](CCCN)C(=O)NCCOCCOCC(=O)NCCCCCCCCCCC(=O)O)NC(=O)[C@H](CCC(=O)O)NC(=O)[C@H](C(C)(C)O)NC(=O)[C@H](CC3CCCCC3)NC(=O)[C@H](Cc3cnc[nH]3)NC(=O)[C@@H](CC(C)C)NC(=O)[C@H](C)N(C)C(=O)[C@H](Cc3ccc(C(=O)O)cc3)NC(=O)[C@H](Cc3ccc(-c4ccccc4)cc3)NC(=O)[C@H](Cc3ccc(C(=O)O)cc3)NC2=O)c1` [Example 2498] ({CH2CO}-[4Pal][Phe(4-COOH)]D[Phe(3-Me)][Phe(4-COOH)][Bip][Phe(4-COOH)][NMeA][dL]H[Cha][Val(3-OH)]EC[Orn][AEEA][Aun]-OH; thioether N-14): the IC50 was determined as 36.2 nM.

Regarding `Cc1cccc(C[C@@H]2NC(=O)[C@H](CC(=O)O)NC(=O)[C@H](Cc3ccc(C(=O)O)cc3)NC(=O)[C@H](C(C)O)NC(=O)CSC[C@@H](C(=O)N[C@@H](CCCN)C(=O)NCCOCCOCC(=O)NCCCCCCCCCCC(=O)O)NC(=O)[C@H](CCC(=O)O)NC(=O)[C@H](C(C)(C)O)NC(=O)[C@H](CC3CCCCC3)NC(=O)[C@H](CCN)NC(=O)[C@@H](CC(C)C)NC(=O)[C@H](C)N(C)C(=O)[C@H](Cc3ccc(C(=O)O)cc3)NC(=O)[C@H](Cc3ccc(-c4ccccc4)cc3)NC(=O)[C@H](Cc3ccc(C(=O)O)cc3)NC2=O)c1` (stereo partly drawn) [Example 2499] ({CH2CO}-[Thr(3ξ)][Phe(4-COOH)]D[Phe(3-Me)][Phe(4-COOH)][Bip][Phe(4-COOH)][NMeA][dL][Dab][Cha][Val(3-OH)]EC[Orn][AEEA][Aun]-OH; thioether N-14), the IC50 is 78 nM.

Consider `Cc1cccc(C[C@@H]2NC(=O)[C@H](CC(=O)O)NC(=O)[C@H](Cc3ccc(C(=O)O)cc3)NC(=O)[C@H](Cc3ccsc3)NC(=O)CSC[C@@H](C(=O)N[C@@H](CCN)C(=O)NCCOCCOCC(=O)NCCOCCOCC(=O)NCCCCCCCCCCC(=O)O)NC(=O)[C@H](CCC(=O)O)NC(=O)[C@H](C(C)(C)O)NC(=O)[C@H](CC3CCCCC3)NC(=O)[C@H](CCN)NC(=O)[C@@H](CC(C)C)NC(=O)[C@H](C)N(C)C(=O)[C@H](Cc3ccc(OCC(=O)O)cc3)NC(=O)[C@H](Cc3ccc(-c4ccccc4)cc3)NC(=O)[C@H](Cc3ccc(OCC(=O)O)cc3)NC2=O)c1` [Example 2500] ({CH2CO}-[3Thi][Phe(4-COOH)]D[Phe(3-Me)]Y(Carboxymethyl)[Bip]Y(Carboxymethyl)[NMeA][dL][Dab][Cha][Val(3-OH)]EC[Dab][AEEA][AEEA][Aun]-OH; thioether N-14), for which the IC50 is 19.5 nM.

For `Cc1cccc(C[C@@H]2NC(=O)[C@H](CC(=O)O)NC(=O)[C@H](Cc3ccc(OCC(=O)O)cc3)NC(=O)[C@H](Cc3ccncc3)NC(=O)CSC[C@@H](C(=O)N[C@@H](CCN)C(=O)NCCOCCOCC(=O)NCCOCCOCC(=O)NCCCCCCCCCCC(=O)O)NC(=O)[C@H](CCC(=O)O)NC(=O)[C@H](C(C)C)NC(=O)[C@H](CC3CCCCC3)NC(=O)[C@H](CCN)NC(=O)[C@@H](CC(C)C)NC(=O)[C@H](C)N(C)C(=O)[C@H](Cc3ccc(C(=O)O)cc3)NC(=O)[C@H](Cc3ccc(-c4ccccc4)cc3)NC(=O)[C@H](Cc3ccc(C(=O)O)cc3)NC2=O)c1` [Example 2501] ({CH2CO}-[4Pal]Y(Carboxymethyl)D[Phe(3-Me)][Phe(4-COOH)][Bip][Phe(4-COOH)][NMeA][dL][Dab][Cha]VEC[Dab][AEEA][AEEA][Aun]-OH; thioether N-14), the IC50 was 253 nM.

Take `CCC(C)[C@@H]1NC(=O)[C@H](Cc2ccc(-c3ccccc3)cc2)NC(=O)[C@H](CC(C)C)NC(=O)[C@H](Cc2c[nH]c3ccccc23)NC(=O)[C@H](CC(=O)O)NC(=O)[C@H](Cc2ccc(OCC(=O)O)cc2)NC(=O)[C@H](Cc2ccncc2)NC(=O)CSC[C@@H](C(=O)N[C@@H](CCN)C(=O)NCCOCCOCC(=O)NCCCCCCCCCCC(=O)O)NC(=O)[C@H](CO)NC(=O)[C@H](C(C)(C)O)NC(=O)[C@H](CC2CCCCC2)NC(=O)[C@H](CCN)NC(=O)[C@@H](CC(C)C)NC(=O)[C@H](C)N(C)C1=O` (stereo partly drawn) [Example 2502] ({CH2CO}-[4Pal]Y(Carboxymethyl)DWL[Bip][Ile(3ξ)][NMeA][dL][Dab][Cha][Val(3-OH)]SC[Dab][AEEA][Aun]-OH; thioether N-14): the half-inhibitory concentration (IC50) amounted to 148 nM.
